Holding throughout (type): cell-based
The subject of assay [1] is human alveolar epithelial cells (A549). The experiment in a line: Electrical resistance of A549 alveolar epithelial cells on gold microelectrodes. The note with it: HGF 100 ng/mL; sphingosine 1-phosphate 1 μM. Here is the method:
FIGS. 1A-1D depict HGF-mediated increases in human transendothelial electrical resistance (TER). FIG. 1A: Human pulmonary artery endothelial cells were grown to confluence on gelatinized gold microelectrodes. Two hours prior to TER measurement, growth medium was replaced with serum-free M199. Serial-diluted HGF was added to cells at indicated concentrations and TER monitored for 2.5 hr. […] The result shown is a representative TER tracing of three independent experiments. FIG. 1B: Similar to FIG. 1A, human alveolar epithelial cells (A549) were grown on gold microelectrodes and challenged with vehicle, HGF, (100 ng/mL) or sphingosine 1-phosphate (1 μM). […]
Electrical resistance of EC monolayers was measured using electrical cell impedance sensor system (Applied Biophysics Inc., Troy, N.Y.) as described in Garcia, J. G. N. et al. (2000) J. Appl. […] Cells grown on gold microelectrodes (10^−3 cm^2) in polycarbonate wells act as insulating particles, and the resistance across the monolayers (transendothelial electrical resistance, or TER) is measured in real time. […] The in-phase and out-of-phase voltages between the electrodes were monitored in real time with the lock-in amplifier and converted to scalar measurements of transendothelial impedance, of which resistance was the primary focus. […]

The subject of a further assay is Rac GTPase. The experiment in a line: Rac GTPase activity, p21 Rac-binding domain assay. Particulars: HGF 10 ng/mL or Sph-1-P 1 μM for 1 or 5 min.
The test system of assay [2] is Human pulmonary artery endothelial cells. The experiment in a line: Transendothelial electrical resistance (TER) of human pulmonary artery endothelial cell monolayers. Particulars: HGF 100 ng/ml; baseline TER ~1600 Ω.
The next assay has as its system PI-3′ kinase. The assay can be described thus: Akt phosphorylation by western immunoblotting (PI-3′ kinase activity). Here is the method:
Endothelial cell monolayers grown to confluence in 12-well plates and challenged with HGF were lysed with 100 μl of 2×SDS sample buffer, and cell lysates were transferred into microcentrifuge tubes and boiled for 5 min. After a brief spin, proteins from 10 μl cell lysates were separated on 12% SDS-PAGE and transferred to nitrocellulose (Schleicher & Schuell, Keene, N.H.) (30V, 18 h). After blocking with PBST (PBS with 0.1% Tween 20) containing 5% non-fat milk for 1 hr, nitrocellulose blots were reacted with primary antibodies diluted in PBST containing 5% BSA for 1 hr, washed with PBST (3×10 min), incubated with peroxidase-conjugated secondary antibodies (goat anti-rabbit IgG, 1:10,000 dilution, Sigma; or goat anti-mouse IgG, 1:10,000 dilution, Bio-Rad Labs, Richmond, Calif.) diluted in PBST with 5% non-fat milk for 1 hr and again washed with PBST (3×10 min). Finally, immunoreactive proteins were detected using ECL. The relative intensities of the protein bands were quantified by scanning densitometry.
To identify key signaling mediators involved in HGF-induced barrier protection, the role of PI-3′-kinase in HGF-stimulated barrier improvement was examined by measuring HGF-dependent phosphorylation of the serine/threonine kinase, Akt, a well-accepted method of defining PI-3′ kinase activity. Cell homogenates were analyzed by western immunoblotting with anti-phospho-Akt[…] antibody. When endothelial monolayers were incubated with HGF (20 ng/ml) for increasing amounts of time (1, 2, 5, 10, 15, 20, 30, 60, or 120 minutes), AKT is rapidly phosphorylated beginning at 2 min with maximal effect plateauing by 5-30 min. When the cells are incubated for 15 minutes with increasing concentrations of HGF (0.5, 1, 2, 5, 10, 20, 50 or 100 ng/ml), activation was […] in response to concentrations as low as 5 ng/ml. […]

Entries after “also recorded” stand apart in the source; their conditions may differ.

Method for Rac GTPase: Endothelial cells grown in 100 mm dishes were incubated with agonists in serum-free M199. Cells were lysed in 500 μl Mg^2+ lysis buffer (Upstate Biotechnology, Lake Placid, N.Y.) and homogenized by pipetting. After a brief centrifugation to remove the cell debris, 300 μl of supernatant was incubated with the agarose-conjugated p21-binding domain (PBD) of human PAK-1 (10 μg, 30 min, Upstate Biotechnology). The agarose beads were washed with 1 ml of lysis buffer 5 times and re-suspended in 30 μl of 2×SDS buffer. After 10 min centrifugation at 14,000 g, 15 μl of supernatant from each sample was subjected to electrophoresis in 15% PAGE. […] For total Rac protein measurement, 5 μl of the original cell lysates were used for electrophoresis and western analysis. […] Pulmonary artery endothelial cells were incubated with HGF (10 ng/mL) or Sph-1-P (1 μM) for 1 or 5 min. Cells were lysed, supernatants collected, and activated GTP-bound Rac was precipitated by agarose-conjugated human PAK-1 p21-binding domain and subsequently immunoblotted by anti-Rac mAb. Total Rac protein was detected using cell lysates.

Regarding “HGF: heparin-binding glycoprotein, multifunctional cytokine, ligand of c-Met; purchased from R&D Systems”, the “effect on electrical resistance of epithelial cells” value in assay [1] is given as “did not alter TER values; also recorded: completely without effect”. The Rac activity result in the assay with Rac GTPase is “rapidly and transiently increases Rac activity”. Moreover, the “peak TER” value in assay [2] is recorded as ~2400 Ω. Also, in the assay on PI-3′ kinase (HGF 20 ng/ml), the “onset of Akt phosphorylation” value was found to be 2 min and the “time of maximal Akt phosphorylation (plateau)” value was in the range of 5 to 30 min. Besides, the “lowest concentration giving Akt activation” value with PI-3′ kinase (HGF 0.5-100 ng/ml, 15 minutes) stood at 5 ng/mL.

The values are drawn from US20050004029A1, “Methods and compositions for treating vascular leak using hepatocyte growth factor” (priority 2001, published 2005).
